The numbers were not newly measured in US20230143731A1, “NANOMATERIALS FOR TARGETED TREATMENT OF PULMONARY TISSUE” (The University of North Carolina at Chapel Hill, priority 2020, published 2023), which cites them from elsewhere.

This data set concerns ACE. The conditions noted are these: with and without the C-terminal serine.

Take TPTQQ [TPTQQ peptide]: the ACE inhibition is listed as 26%. As to TPTQQS, the ACE inhibition is 73%.
